Source: the kinase profiling compilation of Christmann-Franck et al. (2016)

Legend:
Assay in all cases: KINOMEscan competition binding
Conditions in all cases: compound 10.0 µM
MAP2K2 (human) = MAP2K2 (human) (UniProt P36507)
CAMK1D (human) = CAMK1D (human) (UniProt Q8IU85)
MAP4K4 (human) = MAP4K4 (human) (UniProt O95819)
MLTK (human) = MLTK (human) (UniProt Q9NYL2)
NEK2 (human) = NEK2 (human) (UniProt P51955)
ACVR1 (human) = ACVR1 (human) (UniProt Q04771)
[1] = tested on: KIT (human), P10721 [V559D/V654A]
CLK4 (human) = CLK4 (human) (UniProt Q9HAZ1)
AAK1 (human) = AAK1 (human) (UniProt Q2M2I8)
STK33 (human) = STK33 (human) (UniProt Q9BYT3)
BMPR2 (human) = BMPR2 (human) (UniProt Q13873)
RAF1 (human) = RAF1 (human) (UniProt P04049)
[2] = tested on: FLT3 (human), P36888 [K663Q]
DAPK2 (human) = DAPK2 (human) (UniProt Q9UIK4)
NTRK3 (human) = NTRK3 (human) (UniProt Q16288)
SIK2 (human) = SIK2 (human) (UniProt Q9H0K1)
MAP2K6 (human) = MAP2K6 (human) (UniProt P52564)
STK4 (human) = STK4 (human) (UniProt Q13043)
AKT3 (human) = AKT3 (human) (UniProt Q9Y243)
[3] = tested on: RET (human), P07949 [V804M]
[4] = biological target: TYK2 JH2 pseudokinase (human) (UniProt P29597)
SRMS (human) = SRMS (human) (UniProt Q9H3Y6)
[5] = tested on: EGFR (human), P00533 [P753S; 747-752 del]
RPS6KA1 KD2 (human) = RPS6KA1 KD2 (human) (UniProt Q15418)
STK32C (human) = STK32C (human) (UniProt Q86UX6)
CIT (human) = CIT (human) (UniProt O14578)
RPS6KA2 KD2 (human) = RPS6KA2 KD2 (human) (UniProt Q15349)
CSNK1G1 (human) = CSNK1G1 (human) (UniProt Q9HCP0)
ULK2 (human) = ULK2 (human) (UniProt Q8IYT8)
MAPK12 (human) = MAPK12 (human) (UniProt P53778)
FRK (human) = FRK (human) (UniProt P42685)
[6] = tested on: RET (human), P07949 [M918T]
INSRR (human) = INSRR (human) (UniProt P14616)
PLK1 (human) = PLK1 (human) (UniProt P53350)
MAPK6 (human) = MAPK6 (human) (UniProt Q16659)
RIPK4 (human) = RIPK4 (human) (UniProt P57078)
[7] = tested on: FLT3 (human), P36888 [N841I]
CAMK2B (human) = CAMK2B (human) (UniProt Q13554)
CSK (human) = CSK (human) (UniProt P41240)
MARK1 (human) = MARK1 (human) (UniProt Q9P0L2)
PRKG1 (human) = PRKG1 (human) (UniProt Q13976)
TEC (human) = TEC (human) (UniProt P42680)

MAP2K2 (human), sequence (P36507 whole entry, looked up): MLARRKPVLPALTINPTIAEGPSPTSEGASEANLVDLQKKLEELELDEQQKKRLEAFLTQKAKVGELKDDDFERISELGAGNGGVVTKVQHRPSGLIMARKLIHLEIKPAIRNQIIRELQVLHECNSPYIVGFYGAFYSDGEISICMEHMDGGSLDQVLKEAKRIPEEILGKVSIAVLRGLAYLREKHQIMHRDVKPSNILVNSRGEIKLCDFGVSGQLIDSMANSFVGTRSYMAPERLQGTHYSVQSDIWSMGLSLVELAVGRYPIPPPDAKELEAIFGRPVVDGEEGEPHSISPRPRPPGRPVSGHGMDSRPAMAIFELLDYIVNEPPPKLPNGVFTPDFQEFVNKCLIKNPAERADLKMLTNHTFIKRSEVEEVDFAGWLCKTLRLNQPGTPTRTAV
NEK2 (human), sequence (P51955 whole entry, looked up): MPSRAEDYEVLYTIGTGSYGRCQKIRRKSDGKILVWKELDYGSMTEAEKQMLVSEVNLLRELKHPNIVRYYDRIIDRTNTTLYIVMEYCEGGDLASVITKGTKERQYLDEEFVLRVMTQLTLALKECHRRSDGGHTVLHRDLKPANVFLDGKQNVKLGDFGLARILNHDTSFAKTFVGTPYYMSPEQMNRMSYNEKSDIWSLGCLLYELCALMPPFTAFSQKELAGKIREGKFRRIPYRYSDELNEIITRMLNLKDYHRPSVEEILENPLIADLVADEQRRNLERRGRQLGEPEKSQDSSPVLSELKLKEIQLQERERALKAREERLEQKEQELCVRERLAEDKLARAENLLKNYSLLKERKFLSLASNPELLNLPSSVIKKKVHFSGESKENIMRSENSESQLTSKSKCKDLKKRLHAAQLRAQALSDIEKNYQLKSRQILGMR
STK33 (human), sequence (Q9BYT3 whole entry, looked up): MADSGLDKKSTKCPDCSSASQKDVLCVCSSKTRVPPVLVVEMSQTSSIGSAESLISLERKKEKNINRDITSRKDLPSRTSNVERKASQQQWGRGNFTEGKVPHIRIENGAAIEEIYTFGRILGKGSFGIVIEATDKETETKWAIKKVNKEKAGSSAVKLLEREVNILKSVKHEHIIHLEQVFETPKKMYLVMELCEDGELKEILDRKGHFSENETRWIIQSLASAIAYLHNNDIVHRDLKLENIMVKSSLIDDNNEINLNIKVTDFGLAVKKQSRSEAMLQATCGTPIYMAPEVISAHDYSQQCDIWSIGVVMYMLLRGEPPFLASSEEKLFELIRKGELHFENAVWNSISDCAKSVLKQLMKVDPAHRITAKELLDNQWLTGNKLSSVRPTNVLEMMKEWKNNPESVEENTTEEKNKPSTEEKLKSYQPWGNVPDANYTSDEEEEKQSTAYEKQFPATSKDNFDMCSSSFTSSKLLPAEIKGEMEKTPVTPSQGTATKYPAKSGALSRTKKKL
MAPK6 (human), sequence (Q16659 whole entry, looked up): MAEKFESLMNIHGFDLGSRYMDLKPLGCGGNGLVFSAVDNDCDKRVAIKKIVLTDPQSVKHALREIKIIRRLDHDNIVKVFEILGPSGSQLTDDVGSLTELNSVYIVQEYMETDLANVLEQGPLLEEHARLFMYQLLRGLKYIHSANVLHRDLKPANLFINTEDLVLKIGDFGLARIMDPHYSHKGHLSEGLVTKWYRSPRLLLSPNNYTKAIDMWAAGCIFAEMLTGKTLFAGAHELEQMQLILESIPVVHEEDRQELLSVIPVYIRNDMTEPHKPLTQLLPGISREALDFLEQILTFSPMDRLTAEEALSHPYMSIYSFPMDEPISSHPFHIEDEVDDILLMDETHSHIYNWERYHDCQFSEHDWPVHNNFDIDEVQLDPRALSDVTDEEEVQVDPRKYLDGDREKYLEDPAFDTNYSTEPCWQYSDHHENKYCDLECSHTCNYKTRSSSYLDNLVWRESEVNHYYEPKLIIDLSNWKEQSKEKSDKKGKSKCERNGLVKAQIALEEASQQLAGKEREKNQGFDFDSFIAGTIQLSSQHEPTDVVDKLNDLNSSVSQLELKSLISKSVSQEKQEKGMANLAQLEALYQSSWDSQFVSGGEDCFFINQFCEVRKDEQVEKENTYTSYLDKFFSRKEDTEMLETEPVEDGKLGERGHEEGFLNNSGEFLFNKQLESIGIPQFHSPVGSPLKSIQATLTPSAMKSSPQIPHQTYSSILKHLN
CAMK2B (human), sequence (Q13554 whole entry, looked up): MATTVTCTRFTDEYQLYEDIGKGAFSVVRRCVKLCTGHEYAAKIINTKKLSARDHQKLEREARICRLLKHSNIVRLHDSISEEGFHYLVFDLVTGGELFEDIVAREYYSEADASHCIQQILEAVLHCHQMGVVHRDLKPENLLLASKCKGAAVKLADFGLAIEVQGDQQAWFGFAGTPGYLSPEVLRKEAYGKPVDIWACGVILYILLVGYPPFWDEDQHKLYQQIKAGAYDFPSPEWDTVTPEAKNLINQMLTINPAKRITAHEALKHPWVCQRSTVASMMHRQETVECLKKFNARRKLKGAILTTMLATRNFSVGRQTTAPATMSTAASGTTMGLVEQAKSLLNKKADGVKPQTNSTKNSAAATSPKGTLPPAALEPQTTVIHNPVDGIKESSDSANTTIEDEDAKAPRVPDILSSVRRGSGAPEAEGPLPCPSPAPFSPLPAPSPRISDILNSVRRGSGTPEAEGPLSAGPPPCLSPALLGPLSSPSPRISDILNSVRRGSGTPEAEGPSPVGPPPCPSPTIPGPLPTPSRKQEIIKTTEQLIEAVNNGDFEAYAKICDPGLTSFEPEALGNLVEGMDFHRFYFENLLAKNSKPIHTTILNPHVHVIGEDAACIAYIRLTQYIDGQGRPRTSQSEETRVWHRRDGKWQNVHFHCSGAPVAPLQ
RAF1 (human), sequence (P04049 whole entry, looked up): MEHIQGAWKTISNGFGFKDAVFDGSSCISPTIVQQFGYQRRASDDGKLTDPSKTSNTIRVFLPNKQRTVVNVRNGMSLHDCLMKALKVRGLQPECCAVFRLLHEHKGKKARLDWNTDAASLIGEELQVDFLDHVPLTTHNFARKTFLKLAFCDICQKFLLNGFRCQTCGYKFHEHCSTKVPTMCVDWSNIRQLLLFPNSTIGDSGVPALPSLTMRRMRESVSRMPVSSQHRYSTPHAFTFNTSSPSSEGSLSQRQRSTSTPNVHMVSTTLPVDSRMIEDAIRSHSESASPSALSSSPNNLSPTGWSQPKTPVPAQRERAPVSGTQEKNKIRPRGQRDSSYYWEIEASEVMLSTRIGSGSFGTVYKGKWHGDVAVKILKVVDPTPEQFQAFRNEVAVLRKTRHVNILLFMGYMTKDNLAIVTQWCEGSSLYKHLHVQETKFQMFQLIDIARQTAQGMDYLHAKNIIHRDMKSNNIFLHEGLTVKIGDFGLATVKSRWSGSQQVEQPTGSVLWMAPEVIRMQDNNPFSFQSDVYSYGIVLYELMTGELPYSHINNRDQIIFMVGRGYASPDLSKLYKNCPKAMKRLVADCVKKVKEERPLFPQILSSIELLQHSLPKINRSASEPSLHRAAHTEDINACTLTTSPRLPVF
NTRK3 (human), sequence (Q16288 whole entry, looked up): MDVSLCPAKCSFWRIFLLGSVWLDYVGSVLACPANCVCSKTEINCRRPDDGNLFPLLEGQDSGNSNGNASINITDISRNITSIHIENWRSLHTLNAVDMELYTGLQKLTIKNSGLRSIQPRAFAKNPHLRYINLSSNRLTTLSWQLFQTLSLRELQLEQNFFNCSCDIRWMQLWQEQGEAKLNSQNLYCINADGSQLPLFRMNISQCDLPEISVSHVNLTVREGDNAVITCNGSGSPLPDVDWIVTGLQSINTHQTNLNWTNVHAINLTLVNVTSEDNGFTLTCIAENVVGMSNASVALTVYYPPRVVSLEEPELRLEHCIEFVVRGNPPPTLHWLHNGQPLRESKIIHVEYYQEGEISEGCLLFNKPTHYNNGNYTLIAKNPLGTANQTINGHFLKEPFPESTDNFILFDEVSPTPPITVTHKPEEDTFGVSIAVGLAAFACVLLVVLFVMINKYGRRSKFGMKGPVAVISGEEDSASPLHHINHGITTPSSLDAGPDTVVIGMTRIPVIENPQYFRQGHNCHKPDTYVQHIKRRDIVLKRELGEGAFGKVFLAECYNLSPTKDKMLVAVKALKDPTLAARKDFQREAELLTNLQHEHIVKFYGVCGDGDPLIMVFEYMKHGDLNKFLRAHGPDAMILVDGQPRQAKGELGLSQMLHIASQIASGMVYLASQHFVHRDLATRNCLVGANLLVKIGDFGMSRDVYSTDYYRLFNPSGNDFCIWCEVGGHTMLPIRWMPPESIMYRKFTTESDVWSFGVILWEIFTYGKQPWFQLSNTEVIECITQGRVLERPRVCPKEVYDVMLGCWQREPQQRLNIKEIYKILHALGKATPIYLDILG
STK32C (human), sequence (Q86UX6 whole entry, looked up): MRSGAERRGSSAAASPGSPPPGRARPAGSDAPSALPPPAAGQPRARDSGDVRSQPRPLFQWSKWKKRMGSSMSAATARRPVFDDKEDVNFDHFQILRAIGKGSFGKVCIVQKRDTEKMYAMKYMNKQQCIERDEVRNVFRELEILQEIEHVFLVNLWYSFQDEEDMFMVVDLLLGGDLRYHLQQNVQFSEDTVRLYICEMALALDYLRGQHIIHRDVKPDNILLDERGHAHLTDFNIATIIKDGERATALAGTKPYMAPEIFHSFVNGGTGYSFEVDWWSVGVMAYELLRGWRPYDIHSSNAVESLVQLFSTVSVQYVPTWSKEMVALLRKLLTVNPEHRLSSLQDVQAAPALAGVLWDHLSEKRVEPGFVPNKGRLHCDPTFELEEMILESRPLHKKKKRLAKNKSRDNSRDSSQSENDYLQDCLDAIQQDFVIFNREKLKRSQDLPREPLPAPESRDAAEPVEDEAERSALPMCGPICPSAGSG

CCOc1cc(N2CCC(N3CCCCC3)CC2)ccc1Nc1nc(Nc2ccccc2S(=O)(=O)C(C)C)c2cn[nH]c2n1
kinase still bound, per cent of control (MAP2K2 (human)): 94% | kinase still bound, per cent of control (CAMK1D (human)): 1% | kinase still bound, per cent of control (MAP4K4 (human)): 100% | kinase still bound, per cent of control (MLTK (human)): 100% | kinase still bound, per cent of control (NEK2 (human)): 100% | kinase still bound, per cent of control (ACVR1 (human)): 60% | kinase still bound, per cent of control [1]: 100% | kinase still bound, per cent of control (CLK4 (human)): 5.2% | kinase still bound, per cent of control (AAK1 (human)): 69% | kinase still bound, per cent of control (STK33 (human)): 15% | kinase still bound, per cent of control (BMPR2 (human)): 85% | kinase still bound, per cent of control (RAF1 (human)): 100% | kinase still bound, per cent of control [2]: 100% | kinase still bound, per cent of control (DAPK2 (human)): 64% | kinase still bound, per cent of control (NTRK3 (human)): 54% | kinase still bound, per cent of control (SIK2 (human)): 85% | kinase still bound, per cent of control (MAP2K6 (human)): 100% | kinase still bound, per cent of control (STK4 (human)): 100% | kinase still bound, per cent of control (AKT3 (human)): 100% | kinase still bound, per cent of control [3]: 100% | kinase still bound, per cent of control [4]: 63% | kinase still bound, per cent of control (SRMS (human)): 27% | kinase still bound, per cent of control [5]: 40% | kinase still bound, per cent of control (RPS6KA1 KD2 (human)): 14% | kinase still bound, per cent of control (STK32C (human)): 88% | kinase still bound, per cent of control (CIT (human)): 100% | kinase still bound, per cent of control (RPS6KA2 KD2 (human)): 7.4% | kinase still bound, per cent of control (CSNK1G1 (human)): 71% | kinase still bound, per cent of control (ULK2 (human)): 3.4% | kinase still bound, per cent of control (MAPK12 (human)): 100% | kinase still bound, per cent of control (FRK (human)): 18% | kinase still bound, per cent of control [6]: 100% | kinase still bound, per cent of control (INSRR (human)): 0.4% | kinase still bound, per cent of control (PLK1 (human)): 47% | kinase still bound, per cent of control (MAPK6 (human)): 94% | kinase still bound, per cent of control (RIPK4 (human)): 76% | kinase still bound, per cent of control [7]: 100% | kinase still bound, per cent of control (CAMK2B (human)): 65% | kinase still bound, per cent of control (CSK (human)): 100% | kinase still bound, per cent of control (MARK1 (human)): 100% | kinase still bound, per cent of control (PRKG1 (human)): 100% | kinase still bound, per cent of control (TEC (human)): 98%
